ChEMBL document CHEMBL1128802, “Hydroxy-anthraquinones as antimalarial agents” (Bioorg Med Chem Lett, 1995)

Tests used:
Plasmodium falciparum = assay: In vitro inhibitory activity against Plasmodium falciparum D6; format: functional, organism-based
CFU-GM [1] = assay: In vitro toxicity against human bone marrow stem cells(CFU-GM) at a dose of 1.0 uM; activity expressed as average colony count; format: functional
CFU-GM [2] = assay: In vitro toxicity against human bone marrow stem cells(CFU-GM) at a dose of 5.0 uM; activity expressed as average colony count; format: functional
CFU-GM [3] = assay: In vitro toxicity against human bone marrow stem cells(CFU-GM) at a dose of 0.1 uM; activity expressed as average colony count; format: functional
CFU-GM [4] = assay: In vitro toxicity against human bone marrow stem cells (CFU-GM) in the absence (control); activity expressed as average colony count; format: functional, Bone element
CFU-GM [5] = assay: In vitro toxicity against human bone marrow stem cells(CFU-GM) at a dose of 10.0 uM; activity expressed as average colony count; format: functional
CFU-GM [6] = assay: In vitro toxicity against human bone marrow stem cells(CFU-GM) at a dose of 100.0 uM; activity expressed as average colony count; format: functional
CFU-GM [7] = assay: In vitro toxicity against human bone marrow stem cells(CFU-GM) in the absence (control); activity expressed as average colony count; format: functional

Structure (SMILES) | IC50 (Plasmodium falciparum) | further results
COc1cc2c(cc1OC)C(=O)c1cc(OC)c(OC)cc1C2=O | ≥ 5 µM | 
O=C1c2c(O)c(O)c(O)c(O)c2C(=O)c2c(O)c(O)c(O)c(O)c21 | 0.8 µM | 
COc1cc2c(c(OC)c1OC)C(=O)c1cc(OC)c(OC)c(OC)c1C2=O | ≥ 5 µM | 
COc1c(OC)c(OC)c2c(c1OC)C(=O)c1c(OC)c(OC)c(OC)c(OC)c1C2=O | ≥ 5 µM | 
O=C1c2c(O)c(O)c(O)c(Br)c2C(=O)c2c(O)c(O)c(O)c(Br)c21 | 5 µM | 
COc1c(Br)c2c(c(OC)c1OC)C(=O)c1c(Br)c(OC)c(OC)c(OC)c1C2=O | ≥ 5 µM | 
O=C1c2cc(O)c(O)cc2C(=O)c2cc(O)c(O)cc21 | 0.3 µM | 
O=C1c2cc(O)c(O)c(O)c2C(=O)c2cc(O)c(O)c(O)c21 | 0.035 µM | Average colony count (CFU-GM [1]): 57; Average colony count (CFU-GM [2]): 47; Average colony count (CFU-GM [3]): 61; Average colony count (CFU-GM [4]): 56; Average colony count (CFU-GM [5]): 36; Average colony count (CFU-GM [6]): 5
O=C1c2ccc(O)cc2C(=O)c2ccc(O)cc21 [ANTHRAFLAVICACID] | > 1 µM | 
O=C1c2ccccc2C(=O)c2ccccc21 [ANTHRAQUINONE] | 5 µM | 
O=C1c2cccc(O)c2C(=O)c2cccc(O)c21 [ANTHRARUFIN] | > 1 µM | 
CCN(CC)CCCC(C)Nc1ccnc2cc(Cl)ccc12 (centres undefined) [CHLOROQUINE] |  | Average colony count (CFU-GM [1]): 54; Average colony count (CFU-GM [2]): 54; Average colony count (CFU-GM [3]): 56; Average colony count (CFU-GM [5]): 48; Average colony count (CFU-GM [6]): 5; Average colony count (CFU-GM [7]): 56
O=C1c2ccccc2C(=O)c2c(O)c(O)cc(O)c21 [PURPURIN] | > 1 µM | 
